Assay results published in ChEMBL document CHEMBL1128304, “The synthesis of N-hydroxy-N'-phenyloctanediamide and its inhibitory effect on proliferation of AXC rat prostate cancer cells” (1995).

Columns and labels:
[1] = test system: Erythroleukemia cell line; experiment: Percent of murine erythroleukemia cells that became benzidine reactive after administration (2.5 uM); type: functional, Mus musculus
HL-60 = experiment: Percent of HL-60 cells (from human acute promyelocytic leukemia) to develop the ability to reduce nitroblue tetrazolium after administration (1 uM); type: functional; design: scale not given: the % may be the effect or the level left
T/5 = experiment: Tested for morphological alterations in T/5 cells after administration along with DMSO (0.1%); type: functional, cell-based; details: Rattus norvegicus

In the case of `O=C(CCCCCCC(=O)Nc1ccccc1)NO` [VORINOSTAT], the Activity [1] is reported as 70%, the Activity (HL-60) is reported as 21% and the Activity (T/5) is reported as “No morphological alterations observed”.
